# Laboratory results from PubChem BioAssay AID1918949 (Molecular Pharmacology Branch, DTP, NCI, 2023).
# Values joined by “and” are separate entries in the source; they are usually repeats but may differ in a detail not shown here. Equal values may be shown once.
# Test system: K24384-001-R-PDC complex spheroid viability
# Assay: Anticancer human tumor K24384-001-R-PDC patient-derived pancreatic adenocarcinoma cell line growth inhibition
# Conditions: for viability, T/C: stronger effect = lower value
# Procedure, shortened: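 Drug combinations with the LSD1 inhibitor iadademstat tested on tumor cells co-cultured as spheroids with endothelial cells and mesenchymal stem cells. Concentrations descended in half-log increments from clinical Cmax or 10 microM.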
# [1] = curve of first compound, second compound 0.1 µM
# [2] = curve of first compound, second compound 0.316 µM
# [3] = curve of first compound, second compound 1 µM
# [4] = curve of first compound, second compound 3.16 µM
# [5] = curve of first compound, second compound 10 µM
# [6] = second compound 0.1 µM, first compound 0.00316 µM
# [7] = second compound 0.1 µM, first compound 0.01 µM
# [8] = second compound 0.1 µM, first compound 0.0316 µM
# [9] = second compound 0.1 µM, first compound 0.1 µM
# [10] = second compound 0.1 µM, first compound 0.316 µM
# [11] = second compound 0.1 µM, first compound 1 µM
# [12] = second compound 0.316 µM, first compound 0.00316 µM
# [13] = second compound 0.316 µM, first compound 0.01 µM
# [14] = second compound 0.316 µM, first compound 0.0316 µM
# [15] = second compound 0.316 µM, first compound 0.1 µM
# [16] = second compound 0.316 µM, first compound 0.316 µM
# [17] = second compound 0.316 µM, first compound 1 µM
# [18] = second compound 1 µM, first compound 0.00316 µM
# [19] = second compound 1 µM, first compound 0.01 µM
# [20] = second compound 1 µM, first compound 0.0316 µM
# [21] = second compound 1 µM, first compound 0.1 µM
# [22] = second compound 1 µM, first compound 0.316 µM
# [23] = second compound 1 µM, first compound 1 µM
# [24] = second compound 3.16 µM, first compound 0.00316 µM
# [25] = second compound 3.16 µM, first compound 0.01 µM
# [26] = second compound 3.16 µM, first compound 0.0316 µM
# [27] = second compound 3.16 µM, first compound 0.1 µM
# [28] = second compound 3.16 µM, first compound 0.316 µM
# [29] = second compound 3.16 µM, first compound 1 µM
# [30] = second compound 10 µM, first compound 0.00316 µM
# [31] = second compound 10 µM, first compound 0.01 µM
# [32] = second compound 10 µM, first compound 0.0316 µM
# [33] = second compound 10 µM, first compound 0.1 µM
# [34] = second compound 10 µM, first compound 0.316 µM
# [35] = second compound 10 µM, first compound 1 µM
# [36] = second compound 0.1 µM, first compound 3.16 µM
# [37] = second compound 0.1 µM, first compound 10 µM
# [38] = second compound 0.316 µM, first compound 3.16 µM
# [39] = second compound 0.316 µM, first compound 10 µM
# [40] = second compound 1 µM, first compound 3.16 µM
# [41] = second compound 1 µM, first compound 10 µM
# [42] = second compound 3.16 µM, first compound 3.16 µM
# [43] = second compound 3.16 µM, first compound 10 µM
# [44] = second compound 10 µM, first compound 3.16 µM
# [45] = second compound 10 µM, first compound 10 µM
# 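Further: spheroids exposed to agents for seven days before luminescence viability reading.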
# 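Wherever viability, T/C is given: 100% = DMSO vehicle control viability.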
smiles,measurement,setting,value
CCN(c1cc(-c2ccc(CN3CCOCC3)cc2)cc(C(=O)NCc2c(C)cc(C)[nH]c2=O)c1C)C1CCOCC1 + NC1CCC(NC2CC2c2ccccc2)CC1,IC50,[1],> 3 µM
same,IC50,[2],> 3 µM
same,IC50,[3],> 3 µM
same,IC50,[4],> 3 µM
same,IC50,[5],> 3 µM
same,"viability, T/C","second compound 0.1 µM, first compound 0.00949 µM",96%
same,"viability, T/C","second compound 0.1 µM, first compound 0.03 µM",80.3%
same,"viability, T/C","second compound 0.1 µM, first compound 0.0949 µM",80.6%
same,"viability, T/C","second compound 0.1 µM, first compound 0.3 µM",107%
same,"viability, T/C","second compound 0.1 µM, first compound 0.949 µM",86.5%
same,"viability, T/C","second compound 0.1 µM, first compound 3 µM",57.5%
same,"viability, T/C","second compound 0.316 µM, first compound 0.00949 µM",96.7%
same,"viability, T/C","second compound 0.316 µM, first compound 0.03 µM",92.1%
same,"viability, T/C","second compound 0.316 µM, first compound 0.0949 µM",94.7%
same,"viability, T/C","second compound 0.316 µM, first compound 0.3 µM",92.1%
same,"viability, T/C","second compound 0.316 µM, first compound 0.949 µM",93.7%
same,"viability, T/C","second compound 0.316 µM, first compound 3 µM",71.1%
same,"viability, T/C","second compound 1 µM, first compound 0.00949 µM",98.4%
same,"viability, T/C","second compound 1 µM, first compound 0.03 µM",84.3%
same,"viability, T/C","second compound 1 µM, first compound 0.0949 µM",103%
same,"viability, T/C","second compound 1 µM, first compound 0.3 µM",83.7%
same,"viability, T/C","second compound 1 µM, first compound 0.949 µM",82.2%
same,"viability, T/C","second compound 1 µM, first compound 3 µM",62.9%
same,"viability, T/C","second compound 3.16 µM, first compound 0.00949 µM",81.3%
same,"viability, T/C","second compound 3.16 µM, first compound 0.03 µM",104%
same,"viability, T/C","second compound 3.16 µM, first compound 0.0949 µM",91.6%
same,"viability, T/C","second compound 3.16 µM, first compound 0.3 µM",79.1%
same,"viability, T/C","second compound 3.16 µM, first compound 0.949 µM",73%
same,"viability, T/C","second compound 3.16 µM, first compound 3 µM",70.2%
same,"viability, T/C","second compound 10 µM, first compound 0.00949 µM",80.3%
same,"viability, T/C","second compound 10 µM, first compound 0.03 µM",82.7%
same,"viability, T/C","second compound 10 µM, first compound 0.0949 µM",98.8%
same,"viability, T/C","second compound 10 µM, first compound 0.3 µM",73.7%
same,"viability, T/C","second compound 10 µM, first compound 0.949 µM",79.1%
same,"viability, T/C","second compound 10 µM, first compound 3 µM",70.5%
CC1COCCN1c1cc(C2(S(C)(=N)=O)CC2)nc(-c2ccnc3[nH]ccc23)n1 (centres undefined),"viability, T/C",compound 0.0316 µM,103% and 94.9%
same,"viability, T/C",compound 0.1 µM,97.9% and 102%
same,"viability, T/C",compound 0.316 µM,107% and 81.7%
same,"viability, T/C",compound 1 µM,75.8% and 67.1%
same,"viability, T/C",compound 3.16 µM,45.8% and 42.4%
same,"viability, T/C",compound 10 µM,48.6% and 44.5%
same,IC50,curve of compound,2.83 µM and 2.53 µM
CC1COCCN1c1cc(-c2ccnn2C)c2ccnc(-c3ccn[nH]3)c2n1 (centres undefined) + NC1CCC(NC2CC2c2ccccc2)CC1,IC50,[1],0.0566 µM
same,IC50,[2],< 0.00316 µM
same,IC50,[3],0.00771 µM
same,IC50,[4],0.00922 µM
same,IC50,[5],0.00507 µM
same,"viability, T/C",[6],54.7%
same,"viability, T/C",[7],56.7%
same,"viability, T/C",[8],49%
same,"viability, T/C",[9],45.1%
same,"viability, T/C",[10],52.2%
same,"viability, T/C",[11],42.4%
same,"viability, T/C",[12],52.6%
same,"viability, T/C",[13],48.3%
same,"viability, T/C",[14],42.5%
same,"viability, T/C",[15],43.3%
same,"viability, T/C",[16],51.6%
same,"viability, T/C",[17],44.4%
same,"viability, T/C",[18],51%
same,"viability, T/C",[19],56.5%
same,"viability, T/C",[20],41.6%
same,"viability, T/C",[21],40.2%
same,"viability, T/C",[22],47.5%
same,"viability, T/C",[23],44.2%
same,"viability, T/C",[24],55.4%
same,"viability, T/C",[25],51.7%
same,"viability, T/C",[26],41.8%
same,"viability, T/C",[27],42%
same,"viability, T/C",[28],49.7%
same,"viability, T/C",[29],36.2%
same,"viability, T/C",[30],48.4%
same,"viability, T/C",[31],54.9%
same,"viability, T/C",[32],39.2%
same,"viability, T/C",[33],34.7%
same,"viability, T/C",[34],33.2%
same,"viability, T/C",[35],31.6%
O=C(c1cc(Cc2n[nH]c(=O)c3ccccc23)ccc1F)N1CCN(C(=O)C2CC2)CC1 + NC1CC1c1ccc(-c2cccc(O)c2)cc1,IC50,[1],> 10 µM
same,IC50,[2],> 10 µM
same,IC50,[3],> 10 µM
same,IC50,[4],> 10 µM
same,IC50,[5],> 10 µM
same,"viability, T/C",[8],96.3%
same,"viability, T/C",[9],73.9%
same,"viability, T/C",[10],84.4%
same,"viability, T/C",[11],65.8%
same,"viability, T/C",[36],56.2%
same,"viability, T/C",[37],67.4%
same,"viability, T/C",[14],89.8%
same,"viability, T/C",[15],80.5%
same,"viability, T/C",[16],79.5%
same,"viability, T/C",[17],77%
same,"viability, T/C",[38],57.6%
same,"viability, T/C",[39],66.1%
same,"viability, T/C",[20],78.7%
same,"viability, T/C",[21],73.5%
same,"viability, T/C",[22],72.6%
same,"viability, T/C",[23],81%
same,"viability, T/C",[40],66.6%
same,"viability, T/C",[41],70.8%
same,"viability, T/C",[26],78.7%
same,"viability, T/C",[27],77.3%
same,"viability, T/C",[28],83.8%
same,"viability, T/C",[29],72.2%
same,"viability, T/C",[42],68%
same,"viability, T/C",[43],59.8%
same,"viability, T/C",[32],86.6%
same,"viability, T/C",[33],81.5%
same,"viability, T/C",[34],76.5%
same,"viability, T/C",[35],87.4%
same,"viability, T/C",[44],54.5%
same,"viability, T/C",[45],62.3%
Nc1ncn(C2CC(O)C(CO)O2)c(=O)n1 (centres undefined) + NC1CCC(NC2CC2c2ccccc2)CC1,IC50,[1],> 1 µM
same,IC50,[2],> 1 µM
same,IC50,[3],> 1 µM
same,IC50,[4],> 1 µM
same,IC50,[5],> 1 µM
same,"viability, T/C",[6],78.3%
same,"viability, T/C",[7],93.8%
same,"viability, T/C",[8],80.4%
same,"viability, T/C",[9],73.6%
same,"viability, T/C",[10],79.5%
same,"viability, T/C",[11],73.5%
same,"viability, T/C",[12],88%
same,"viability, T/C",[13],79.4%
same,"viability, T/C",[14],87.4%
same,"viability, T/C",[15],82.5%
same,"viability, T/C",[16],76.2%
same,"viability, T/C",[17],85.1%
same,"viability, T/C",[18],88.4%
same,"viability, T/C",[19],80.5%
same,"viability, T/C",[20],82.6%
same,"viability, T/C",[21],68.3%
same,"viability, T/C",[22],78.6%
same,"viability, T/C",[23],70.1%
same,"viability, T/C",[24],89.8%
same,"viability, T/C",[25],88%
same,"viability, T/C",[26],105%
same,"viability, T/C",[27],76.6%
same,"viability, T/C",[28],59.7%
same,"viability, T/C",[29],60.9%
same,"viability, T/C",[30],92.9%
same,"viability, T/C",[31],83.8%
same,"viability, T/C",[32],87.8%
same,"viability, T/C",[33],63.2%
same,"viability, T/C",[34],73.7%
same,"viability, T/C",[35],72.7%
CC1COCCN1c1cc(-c2ccnn2C)c2ccnc(-c3ccn[nH]3)c2n1 (centres undefined),"viability, T/C",compound 0.00316 µM,64.7% and 53.9%
same,"viability, T/C",compound 0.01 µM,56.8% and 55.5%
same,"viability, T/C",compound 0.0316 µM,47.3% and 37.6%
same,"viability, T/C",compound 0.1 µM,46.8% and 42.9%
same,"viability, T/C",compound 0.316 µM,49.4% and 44.7%
same,"viability, T/C",compound 1 µM,38.1% and 38.2%
same,IC50,curve of compound,0.0351 µM and 0.00859 µM
O=C(c1cc(Cc2n[nH]c(=O)c3ccccc23)ccc1F)N1CCN(C(=O)C2CC2)CC1 + NC1CCC(NC2CC2c2ccccc2)CC1,IC50,[1],> 10 µM
same,IC50,[2],> 10 µM
same,IC50,[3],> 10 µM
same,IC50,[4],> 10 µM
same,IC50,[5],> 10 µM
same,"viability, T/C",[8],75.1%
same,"viability, T/C",[9],79.7%
same,"viability, T/C",[10],81.6%
same,"viability, T/C",[11],86.5%
same,"viability, T/C",[36],69.3%
same,"viability, T/C",[37],91.8%
same,"viability, T/C",[14],74.6%
same,"viability, T/C",[15],74.8%
same,"viability, T/C",[16],79.5%
same,"viability, T/C",[17],71.2%
same,"viability, T/C",[38],79.4%
same,"viability, T/C",[39],77.8%
same,"viability, T/C",[20],78.1%
same,"viability, T/C",[21],75.8%
same,"viability, T/C",[22],75.3%
same,"viability, T/C",[23],72.4%
same,"viability, T/C",[40],75.2%
same,"viability, T/C",[41],81%
same,"viability, T/C",[26],81.9%
same,"viability, T/C",[27],81.8%
same,"viability, T/C",[28],77.8%
same,"viability, T/C",[29],75.6%
same,"viability, T/C",[42],69.7%
same,"viability, T/C",[43],71.1%
same,"viability, T/C",[32],75.2%
same,"viability, T/C",[33],101%
same,"viability, T/C",[34],68.3%
same,"viability, T/C",[35],73.4%
same,"viability, T/C",[44],65%
same,"viability, T/C",[45],68.8%
